# Experimental data from patent US20250144067A1, “PERSONALIZED STARVATION THERAPY FOR CANCER” (Faeth Therapeutics, Inc., priority 2021, published 2025).
# Where a name gives a salt, the structure may show the parent alone.
# Columns and labels:
# [1] = system: NCI-H292 lung cancer cells; assay: FDA drug screening, complete media vs cholesterol-free media without statin (TABLE 1); type: cell-based, human
# [2] = system: NCI-H292 lung cancer cells; assay: FDA drug screening, complete media vs cholesterol-free media with simvastatin (TABLE 2); type: cell-based, human; details: for Cholesterol-free media + simvastatin (0.04 μM) / Complete Media: NCI-H292 cells
# [3] = NCI-H292 cells, cholesterol-free media without statin, FDA drug library screen
# [4] = NCI-H292 cells, complete media, FDA drug library screen
# [5] = complete vs cholesterol-free media, >0 enhanced anti-cancer activity, about 0 neutral, <0 antagonist
# [6] = cholesterol-free media with simvastatin 0.04 μM, cell growth value in FDA drug screen
# [7] = complete media, cell growth value in FDA drug screen
# [8] = complete media minus cholesterol-free media + simvastatin, >0 enhanced anti-cancer activity, about 0 neutral, <0 antagonist
# [9] = Complete minus Cholesterol-free, >0 enhanced anti-cancer activity, about 0 neutral, <0 antagonist
# [10] = NCI-H292 cells, cholesterol-free media without statin
# [11] = drug in cholesterol-free media with simvastatin 0.04 μM
# [12] = complete media vs cholesterol-free media + simvastatin (0.04 μM), >0 enhanced anti-cancer activity, about 0 neutral, <0 antagonist
# [13] = Complete minus Cholesterol-free, greater than 0 enhanced anti-cancer activity, about 0 neutral, below 0 antagonists
# [14] = NCI-H292 cells in cholesterol-free media without statin
# [15] = NCI-H292 cells in complete media
# [16] = FDA library drug in cholesterol-free media with simvastatin 0.04 μM
# [17] = FDA library drug in complete media
# [18] = Complete minus Cholesterol-free, […]
# [19] = NCI-H292 cells, FDA drug library screen, cholesterol-free media without statin
# [20] = NCI-H292 cells, FDA drug library screen, complete media
# [21] = complete media vs cholesterol-free media + simvastatin (0.04 μM), […]
# [22] = FDA drug library screen, cholesterol-free media with simvastatin 0.04 μM
# [23] = FDA drug library screen, complete media
# [24] = Complete minus Cholesterol-free, greater than 0 enhanced anti-cancer activity, about 0 neutral, below 0 antagonist
# [25] = complete vs cholesterol-free media, […]
compound,measurement,setting,value
CCOC(=O)n1ccn(C)c1=S [Carbimazole],Cholesterol-free,[1]; [3],1.183
same,Complete,[1]; [4],1.469
same,Difference,[1]; [5],0.29
same,Cholesterol-free media + simvastatin (0.04 μM),[2]; [6],1.468
same,Complete Media,[2]; [7],1.519
same,Difference,[2]; [8],0.05
CCCC(CCC)C(=O)O [Valproic acid],Difference,[1]; [9],−0.29
same,Cholesterol-free,[1]; [10],0.957
same,Complete,"[1]; NCI-H292 cells, complete media",0.6641
same,Cholesterol-free media + simvastatin (0.04 μM),[2]; [11],1.017
same,Complete Media,[2]; drug in complete media,0.7948
same,Difference,[2]; [12],−0.22
CC(C(=O)O)c1ccc(CC2CCCC2=O)cc1 (stereo not shown) [Loxoprofen],Difference,[1]; [13],−0.88
same,Cholesterol-free,[1]; [14],1.914
same,Complete,[1]; [15],1.039
same,Cholesterol-free media + simvastatin (0.04 μM),[2]; [6],0.9936
same,Complete Media,[2]; [7],1.115
same,Difference,[2]; [8],0.12
Cc1cn([C@H]2C[C@H](N=[N+]=[N-])[C@@H](CO)O2)c(=O)[nH]c1=O [Zidovudine],Difference,[1]; [9],−0.01
same,Cholesterol-free,[1]; [3],1.211
same,Complete,[1]; [4],1.205
same,Cholesterol-free media + simvastatin (0.04 μM),[2]; [16],1.856
same,Complete Media,[2]; [17],1.268
same,Difference,[2]; [12],−0.59
CC1(C)S[C@@H]2[C@H](NC(=O)C(c3ccccc3)S(=O)(=O)O)C(=O)N2[C@H]1C(=O)O (stereo partly shown) [Sulbenicillin (disodium)],Cholesterol-free,[1]; [3],0.8061
same,Complete,[1]; [4],1.226
same,Difference,[1]; [5],0.42
same,Cholesterol-free media + simvastatin (0.04 μM),[2]; [11],1.164
same,Complete Media,[2]; drug in complete media,0.9986
same,Difference,[2]; [12],−0.17
Almotriptan (malate),Difference,[1]; [18],−0.08
same,Cholesterol-free,[1]; [19],0.8422
same,Complete,[1]; [20],0.7605
same,Cholesterol-free media + simvastatin (0.04 μM),[2]; [16],1.642
same,Difference,[2]; [21],−0.54
CC1(C)CCC(CN2CCN(c3ccc(C(=O)NS(=O)(=O)c4ccc(NCC5CCOCC5)c([N+](=O)[O-])c4)c(Oc4cnc5[nH]ccc5c4)c3)CC2)=C(c2ccc(Cl)cc2)C1 [Venetoclax],Difference,[1]; [13],−0.58
same,Cholesterol-free,[1]; [14],1.517
same,Complete,[1]; [15],0.9332
same,Cholesterol-free media + simvastatin (0.04 μM),[2]; [22],1.767
same,Complete Media,[2]; [23],1.658
same,Difference,[2]; [12],−0.11
COC(c1ccccc1)(c1ccccc1)[C@H](Oc1nc(C)cc(C)n1)C(=O)O [Ambrisentan],Difference,[1]; [24],−0.16
same,Cholesterol-free,[1]; [19],1.13
same,Complete,[1]; [20],0.9703
same,Cholesterol-free media + simvastatin (0.04 μM),[2]; [22],1.296
same,Complete Media,[2]; [23],1.497
same,Difference,[2]; [8],0.20
CC(=O)NS(=O)(=O)c1ccc(N)cc1 [Sulfacetamide],Difference,[1]; [24],−0.14
same,Cholesterol-free,[1]; [19],1.146
same,Complete,[1]; [20],1.008
same,Cholesterol-free media + simvastatin (0.04 μM),[2]; [22],0.6778
same,Complete Media,[2]; [23],0.8793
same,Difference,[2]; [8],0.20
CCCCOc1ccc(CC(=O)NO)cc1 [Bufexamac],Cholesterol-free,[1]; [3],1.346
same,Complete,[1]; [4],1.459
same,Difference,[1]; [5],0.11
same,Cholesterol-free media + simvastatin (0.04 μM),[2]; [22],1.029
same,Complete Media,[2]; [23],1.594
same,Difference,[2]; [8],0.56
COc1cc(Nc2ncc(F)c(Nc3ccc4c(n3)N(COP(=O)(O)O)C(=O)C(C)(C)O4)n2)cc(OC)c1OC [Fostamatinib Disodium],Difference,[1]; [9],−0.20
same,Cholesterol-free,[1]; [10],1.102
same,Complete,"[1]; NCI-H292 cells, complete media",0.9004
same,Cholesterol-free media + simvastatin (0.04 μM),[2]; [22],0.7811
same,Complete Media,[2]; [23],0.6698
same,Difference,[2]; [12],−0.11
C[S+](CC[C@H](N)C(=O)O)C[C@H]1O[C@@H](n2cnc3c(N)ncnc32)[C@H](O)[C@@H]1O.Cc1ccc(S(=O)(=O)[O-])cc1 (stereo partly drawn) [S-Adenosyl-L-methionine (tosylate)],Cholesterol-free,[1]; [3],0.8583
same,Complete,[1]; [4],1.043
same,Difference,[1]; [5],0.19
same,Cholesterol-free media + simvastatin (0.04 μM),[2]; [22],1.239
same,Complete Media,[2]; [23],1.842
same,Difference,[2]; [8],0.60
Cc1ccc(Cl)c(Nc2ccccc2C(=O)O)c1Cl [Meclofenamate (sodium)],Difference,[1]; [13],−0.59
same,Cholesterol-free,[1]; [14],1.453
same,Complete,[1]; [15],0.8579
same,Cholesterol-free media + simvastatin (0.04 μM),[2]; [22],1.009
same,Complete Media,[2]; [23],1.718
same,Difference,[2]; [8],0.71
CCOC(=O)c1ccc(O)cc1 [Ethylparaben],Cholesterol-free,[1]; [3],1.065
same,Complete,[1]; [4],1.563
same,Difference,[1]; [5],0.50
same,Cholesterol-free media + simvastatin (0.04 μM),[2]; [22],1.326
same,Complete Media,[2]; [23],1.517
same,Difference,[2]; [8],0.19
COc1cc(C2Oc3cc([C@H]4Oc5cc(O)cc(O)c5C(=O)[C@@H]4O)ccc3OC2CO)ccc1O (stereo partly shown) [Silibinin],Cholesterol-free,[1]; [3],0.9386
same,Complete,[1]; [4],1.219
same,Difference,[1]; [5],0.28
same,Cholesterol-free media + simvastatin (0.04 μM),[2]; [16],2.112
same,Complete Media,[2]; [17],1.696
same,Difference,[2]; [12],−0.42
CC(C)(C(=O)c1cccnc1)c1cccnc1 [Metyrapone],Cholesterol-free,[1]; [10],1.096
same,Complete,"[1]; NCI-H292 cells, complete media",0.7386
same,Difference,"[1]; complete vs cholesterol-free media, greater than 0 enhanced anti-cancer activity, about 0 neutral, below 0 antagonists",−0.36
same,Cholesterol-free media + simvastatin (0.04 μM),[2]; [6],0.9563
same,Complete Media,[2]; [7],1.066
same,Difference,[2]; [8],0.11
CC(=O)OCC1=C(C(=O)O)N2C(=O)[C@@H](NC(=O)CSC(=NC(C)C)NC(C)C)[C@H]2SC1 [Cefathiamidine],Difference,[1]; [18],−0.30
same,Cholesterol-free,[1]; [10],1.276
same,Complete,"[1]; NCI-H292 cells, complete media",0.9789
same,Cholesterol-free media + simvastatin (0.04 μM),[2]; [22],0.9136
same,Complete Media,[2]; [23],0.833
same,Difference,[2]; [21],−0.08
C[N+](C)(C)C[C@H](O)CC(=O)[O-].Cl [L-Carnitine (hydrochloride)],Cholesterol-free,[1]; [10],1.478
same,Difference,[1]; [25],−0.31
same,Cholesterol-free media + simvastatin (0.04 μM),"[2]; cholesterol-free media with simvastatin 0.04 μM, […]",0.7755
same,Complete Media,"[2]; complete media, […]",0.7998
same,Difference,"[2]; complete media minus cholesterol-free media + simvastatin, […]",0.02
COC(=O)c1ccc2c(c1)NC(=O)/C2=C(\Nc1ccc(N(C)C(=O)CN2CCN(C)CC2)cc1)c1ccccc1 [Nintedanib esylate],Difference,[1]; [9],0.02
same,Cholesterol-free,[1]; [3],0.5114
same,Complete,[1]; [4],0.5279
same,Cholesterol-free media + simvastatin (0.04 μM),"[2]; cholesterol-free media with simvastatin 0.04 μM, FDA drug library screen (TABLE 2)",0.7218
same,Complete Media,"[2]; complete media, FDA drug library screen (TABLE 2)",0.6577
same,Difference,"[2]; complete media minus cholesterol-free media + simvastatin (0.04 μM), >0 enhanced anti-cancer activity, about 0 neutral, <0 antagonist",−0.06
Nc1ccc(S(=O)(=O)Nc2ccccn2)cc1 [Sulfapyridine],Difference,[1]; [9],−0.02
same,Cholesterol-free,[1]; [3],0.8112
same,Complete,[1]; [4],0.7909
same,Cholesterol-free media + simvastatin (0.04 μM),[2]; [22],1.045
same,Complete Media,[2]; [23],1.844
same,Difference,[2]; [8],0.80
O=C(NCC(O)CO)c1c(I)c(C(=O)NCC(O)CO)c(I)c(N(CCO)C(=O)CO)c1I (stereo not shown) [Ioversol],Difference,[1]; [24],−0.10
same,Cholesterol-free,[1]; [19],1.162
same,Complete,[1]; [20],1.064
same,Cholesterol-free media + simvastatin (0.04 μM),[2]; [6],1.012
same,Complete Media,[2]; [7],1.097
same,Difference,[2]; [8],0.09
CC(CCc1ccccc1)NC(C)C(O)c1ccc(O)cc1 (stereo not shown) [Nylidrin (hydrochloride)],Difference,[1]; [13],−0.53
same,Cholesterol-free,[1]; [14],1.455
same,Complete,[1]; [15],0.9273
same,Cholesterol-free media + simvastatin (0.04 μM),[2]; [22],0.6926
same,Complete Media,[2]; [23],0.8576
same,Difference,[2]; [8],0.17
C[C@@H](Oc1cc(-c2cnn(C3CCNCC3)c2)cnc1N)c1c(Cl)ccc(F)c1Cl [Crizotinib],Cholesterol-free,[1]; [3],0.1411
same,Complete,[1]; [4],0.3735
same,Difference,[1]; [5],0.23
same,Cholesterol-free media + simvastatin (0.04 μM),[2]; [6],0.4044
same,Complete Media,[2]; [7],0.5269
same,Difference,[2]; [8],0.12
N[C@@H](CO)C(=O)O [L-Serine],Cholesterol-free,[1]; [10],1.3
same,Complete,"[1]; NCI-H292 cells, complete media",0.9649
same,Difference,[1]; [25],−0.33
same,Cholesterol-free media + simvastatin (0.04 μM),[2]; [11],1.125
same,Complete Media,[2]; drug in complete media,0.9461
same,Difference,[2]; [21],−0.18
